Patent US20230303497A1, “BENZYLAMINE OR BENZYL ALCOHOL DERIVATIVE AND USES THEREOF” (CHENGDU HYPERWAY PHARMACEUTICALS CO., LTD, priority 2020, published 2023)
Like-named read-outs stand apart in the source and are kept apart here.

Key:
hERG ion channels = hERG ion channels (Homo sapiens (Human), UniProt Q12809); assay: Inhibition activity test on hERG ion channels in HEK293 cells (cardiac safety, patch clamp)
Description: This experiment is used as a cardiac safety test of compound.
The reagents are purchased from Sigma (St. Louis, MO) except NaOH and KOH for acid-base titration. Final concentrations of tested solutions are prepared on the testing day and dissolved in extracellular fluid. […] All the test solutions and the control solutions contain 0.3% DMSO. Intracellular fluid (mM) contains: K Aspartate, 130; MgCl2, 5; EGTA 5; HEPES, 10; Tris-ATP 4; pH 7.2 (KOH titration).
Cells: all experiments is performed at room temperature. Each cell itself is taken as the corresponding control.
Compounds are all perfused using a perfusion system that utilizes the gravity. At least two cells are tested per concentration. After current stabilization (or 5 minutes), the change in current magnitude before and after the use of the compound is compared to calculate the blocking effect of the compound.
The method of operation is the same as that of the test compound.
Electrophysiology: Transfer the Cells to the perfusion tank and perfuse with extracellular fluid. The intracellular fluid (mM) contains: K Aspartate, 130; MgCl2, 5; EGTA 5; HEPES, 10; Tris-ATP 4; pH 7.2 (KOH titration). The intracellular fluid is stored in small quantities in portions in a −80° C. refrigerator, and melt on the day of the experiment. Electrodes are drawn with PC-10 (Narishige, Japan). Recording is performed with whole-cell diaphragm clamp. Noise is filtered with one-fifth of the sampling frequency.
This process is repeated every 20 seconds. The hERG tail current is the pure hERG current. The maximum tail current triggered by the second square wave is detected, and when the current is stabilized, the test compound is perfused. The strength of the block is calculated when the response is stabilized.

human NaV1.8 ion channel = human NaV1.8 ion channel (Homo sapiens (Human), UniProt Q9Y5Y9); assay: Compound inhibition activity on human NaV1.8 ion channel in HEK293 cells (whole-cell patch clamp); assay type: cell-based; conditions: 100 nm concentration, HEK293 cells, resting protocol
human NaV1.8 ion channel, sequence (Q9Y5Y9 whole entry): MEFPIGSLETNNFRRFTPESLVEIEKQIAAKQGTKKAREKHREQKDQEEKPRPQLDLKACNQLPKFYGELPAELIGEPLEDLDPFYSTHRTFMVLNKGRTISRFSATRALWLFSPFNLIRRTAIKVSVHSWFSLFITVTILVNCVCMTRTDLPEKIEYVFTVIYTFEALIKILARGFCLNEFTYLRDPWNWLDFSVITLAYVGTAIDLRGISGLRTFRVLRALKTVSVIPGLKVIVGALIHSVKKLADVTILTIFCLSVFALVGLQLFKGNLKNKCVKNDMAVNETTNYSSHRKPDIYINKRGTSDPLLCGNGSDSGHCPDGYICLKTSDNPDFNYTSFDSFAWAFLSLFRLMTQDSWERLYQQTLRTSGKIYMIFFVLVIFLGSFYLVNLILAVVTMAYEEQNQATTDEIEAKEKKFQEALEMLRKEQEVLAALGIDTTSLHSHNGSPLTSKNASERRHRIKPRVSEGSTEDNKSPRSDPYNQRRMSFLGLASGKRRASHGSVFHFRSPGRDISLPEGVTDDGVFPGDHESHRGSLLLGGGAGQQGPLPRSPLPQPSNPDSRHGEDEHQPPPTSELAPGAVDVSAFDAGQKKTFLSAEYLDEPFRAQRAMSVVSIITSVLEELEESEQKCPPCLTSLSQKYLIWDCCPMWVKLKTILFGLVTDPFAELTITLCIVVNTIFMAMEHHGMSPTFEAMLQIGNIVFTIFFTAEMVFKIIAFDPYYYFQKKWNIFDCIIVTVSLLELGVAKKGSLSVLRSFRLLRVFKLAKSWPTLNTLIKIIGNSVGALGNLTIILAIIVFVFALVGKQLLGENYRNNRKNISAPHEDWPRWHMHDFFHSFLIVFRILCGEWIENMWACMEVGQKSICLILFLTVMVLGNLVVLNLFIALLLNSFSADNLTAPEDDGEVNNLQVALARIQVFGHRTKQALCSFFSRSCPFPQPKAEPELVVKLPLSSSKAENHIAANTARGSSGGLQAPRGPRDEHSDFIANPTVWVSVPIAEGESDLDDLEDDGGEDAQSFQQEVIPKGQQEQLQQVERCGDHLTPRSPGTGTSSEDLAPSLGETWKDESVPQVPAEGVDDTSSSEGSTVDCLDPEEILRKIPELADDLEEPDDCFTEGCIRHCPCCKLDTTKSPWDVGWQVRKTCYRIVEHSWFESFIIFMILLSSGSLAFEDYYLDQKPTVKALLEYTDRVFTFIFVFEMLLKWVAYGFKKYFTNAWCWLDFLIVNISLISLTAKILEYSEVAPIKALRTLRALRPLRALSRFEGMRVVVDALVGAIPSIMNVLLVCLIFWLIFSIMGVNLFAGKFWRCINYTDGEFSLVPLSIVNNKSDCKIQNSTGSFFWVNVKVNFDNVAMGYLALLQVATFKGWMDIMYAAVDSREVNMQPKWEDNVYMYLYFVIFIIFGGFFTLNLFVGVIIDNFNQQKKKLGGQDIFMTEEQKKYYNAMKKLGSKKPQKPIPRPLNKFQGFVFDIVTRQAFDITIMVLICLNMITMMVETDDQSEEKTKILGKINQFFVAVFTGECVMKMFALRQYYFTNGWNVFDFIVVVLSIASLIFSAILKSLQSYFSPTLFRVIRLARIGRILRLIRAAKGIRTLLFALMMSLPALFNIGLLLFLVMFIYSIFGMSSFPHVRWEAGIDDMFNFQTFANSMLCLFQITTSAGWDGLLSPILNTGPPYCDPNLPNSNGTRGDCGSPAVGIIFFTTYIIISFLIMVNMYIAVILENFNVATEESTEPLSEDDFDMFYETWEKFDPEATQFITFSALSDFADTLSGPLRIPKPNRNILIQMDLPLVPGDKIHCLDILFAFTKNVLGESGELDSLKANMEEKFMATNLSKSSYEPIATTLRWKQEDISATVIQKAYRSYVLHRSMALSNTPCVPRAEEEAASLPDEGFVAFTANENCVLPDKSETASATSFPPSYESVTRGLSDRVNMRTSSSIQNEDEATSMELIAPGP

NaV1.1 = NaV1.1 (Homo sapiens (Human), UniProt P35498); assay: Selectivity test for Nav ion channel subtypes: NaV1.1 (HEK293, patch clamp); assay type: cell-based; conditions: 1 uM; HEK293 cells
Description: (§1) Test Case 3: Compound Selectivity Test for Nav Ion Channel Subtypes
(§2) The aim of this test is to investigate effect of compounds on human Na ion channel cells expressed in steady-state (NaV1.1, NaV1.3, NaV1.4, NaV1.5, NaV1.6, NaV1.7). After Na ion currents is stabilized, the effect can be obtained by comparing the magnitude of Na channel currents before and after the application of the compounds.
(§3) The test compound is stored at a concentration of 9 mM in dimethyl sulfoxide (DMSO), and on the day of testing, dissolve in extracellular solution, then prepare to a screening concentration of 1 uM.
(§4) All experiments are performed at room temperature. Each cell itself is taken as the corresponding control.
(§5) At least one cell is tested per concentration.
(§6) HEK293 cells steadily expressing NaV1.1-, NaV1.3-, NaV1.4-, NaV1.5-, NaV1.6-ion channels; CHO cells expressing steadily NaV1.7 ion channel.
(§7) The intracellular fluid (mM) is: Aspartic acid, 140; MgCl2, 2; EGTA 11; HEPES, 10; pH 7.2 (CsOH titration). […] Electrodes are drawn with PC-10 (Narishige, Japan). Recording is performed with whole-cell diaphragm clamp.
(§8) Cells are clamped at −80 mV and then depolarized to −10 mV with a sustained 10 ms square wave to obtain Na ion channel currents (see the FIGURE). This process is repeated every 5 seconds. […] The strength of the block is calculated after the response is stabilized.

NaV1.3 = NaV1.3 (Homo sapiens (Human), UniProt Q9NY46); assay: Selectivity test for Nav ion channel subtypes: NaV1.3 (HEK293, patch clamp); assay type: cell-based; conditions: 1 uM; HEK293 cells
Description: as §1, §2, §3, §4, §5, §6, §7, §8

NaV1.4 = NaV1.4 (Homo sapiens (Human), UniProt P35499); assay: Selectivity test for Nav ion channel subtypes: NaV1.4 (HEK293, patch clamp); assay type: cell-based; conditions: 1 uM; HEK293 cells
Description: as §1, §2, §3, §4, §5, §6, §7, §8

NaV1.5 = NaV1.5 (Homo sapiens (Human), UniProt Q14524); assay: Selectivity test for Nav ion channel subtypes: NaV1.5 (HEK293, patch clamp); assay type: cell-based; conditions: 1 uM; HEK293 cells
Description: as §1, §2, §3, §4, §5, §6, §7, §8

NaV1.6 = NaV1.6 (Homo sapiens (Human), UniProt Q9UQD0); assay: Selectivity test for Nav ion channel subtypes: NaV1.6 (HEK293, patch clamp); assay type: cell-based; conditions: 1 uM; HEK293 cells
NaV1.6, sequence (Q9UQD0 whole entry): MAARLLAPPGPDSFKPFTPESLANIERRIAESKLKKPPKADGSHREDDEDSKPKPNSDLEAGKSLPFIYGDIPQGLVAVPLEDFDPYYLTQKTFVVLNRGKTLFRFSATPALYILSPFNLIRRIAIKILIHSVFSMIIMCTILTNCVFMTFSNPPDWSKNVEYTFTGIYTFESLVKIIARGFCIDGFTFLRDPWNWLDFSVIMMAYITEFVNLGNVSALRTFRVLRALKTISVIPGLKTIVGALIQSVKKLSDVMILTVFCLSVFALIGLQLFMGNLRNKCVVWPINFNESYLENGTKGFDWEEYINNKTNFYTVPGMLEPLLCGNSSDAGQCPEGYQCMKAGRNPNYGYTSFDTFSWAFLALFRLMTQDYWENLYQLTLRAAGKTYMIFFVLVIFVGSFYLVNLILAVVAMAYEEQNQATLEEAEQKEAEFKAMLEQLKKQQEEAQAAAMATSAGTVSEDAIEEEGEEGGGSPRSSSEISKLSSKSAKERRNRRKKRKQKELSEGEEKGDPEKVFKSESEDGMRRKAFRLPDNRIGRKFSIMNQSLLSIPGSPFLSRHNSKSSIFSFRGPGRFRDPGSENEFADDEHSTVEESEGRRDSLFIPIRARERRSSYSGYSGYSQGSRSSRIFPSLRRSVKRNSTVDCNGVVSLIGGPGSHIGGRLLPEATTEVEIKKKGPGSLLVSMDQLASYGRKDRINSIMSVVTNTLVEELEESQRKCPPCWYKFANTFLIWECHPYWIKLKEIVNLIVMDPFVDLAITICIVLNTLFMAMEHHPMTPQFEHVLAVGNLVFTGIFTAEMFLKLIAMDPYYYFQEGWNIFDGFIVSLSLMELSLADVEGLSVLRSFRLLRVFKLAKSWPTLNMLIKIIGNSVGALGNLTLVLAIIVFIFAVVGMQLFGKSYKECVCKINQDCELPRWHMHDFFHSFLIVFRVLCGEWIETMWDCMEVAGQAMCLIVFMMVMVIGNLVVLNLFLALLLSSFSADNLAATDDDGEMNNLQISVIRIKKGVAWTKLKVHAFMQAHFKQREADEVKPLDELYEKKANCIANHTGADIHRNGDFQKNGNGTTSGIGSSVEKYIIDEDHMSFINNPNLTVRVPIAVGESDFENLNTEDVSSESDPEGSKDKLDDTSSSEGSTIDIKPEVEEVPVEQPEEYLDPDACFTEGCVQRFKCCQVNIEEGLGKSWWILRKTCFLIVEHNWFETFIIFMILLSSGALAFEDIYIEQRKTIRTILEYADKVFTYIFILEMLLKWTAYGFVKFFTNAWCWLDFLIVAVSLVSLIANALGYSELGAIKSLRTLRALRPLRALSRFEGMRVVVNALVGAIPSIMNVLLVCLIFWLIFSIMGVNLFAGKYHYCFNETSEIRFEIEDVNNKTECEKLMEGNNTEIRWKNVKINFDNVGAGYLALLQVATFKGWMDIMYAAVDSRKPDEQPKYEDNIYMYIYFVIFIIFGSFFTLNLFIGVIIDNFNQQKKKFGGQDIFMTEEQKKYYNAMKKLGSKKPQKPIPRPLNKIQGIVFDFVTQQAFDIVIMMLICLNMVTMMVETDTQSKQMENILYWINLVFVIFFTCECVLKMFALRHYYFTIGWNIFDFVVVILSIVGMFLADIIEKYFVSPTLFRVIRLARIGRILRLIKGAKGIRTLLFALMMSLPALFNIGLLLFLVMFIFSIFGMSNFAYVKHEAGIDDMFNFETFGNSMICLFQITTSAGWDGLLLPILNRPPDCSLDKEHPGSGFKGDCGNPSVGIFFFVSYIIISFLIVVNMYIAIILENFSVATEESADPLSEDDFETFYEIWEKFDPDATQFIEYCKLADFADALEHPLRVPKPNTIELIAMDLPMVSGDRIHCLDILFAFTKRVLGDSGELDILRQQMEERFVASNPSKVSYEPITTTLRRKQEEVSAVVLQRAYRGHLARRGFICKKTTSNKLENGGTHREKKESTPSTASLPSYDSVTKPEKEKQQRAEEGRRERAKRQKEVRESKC
Description: as §1, §2, §3, §4, §5, §6, §7, §8

NaV1.7 = NaV1.7 (Homo sapiens (Human), UniProt Q15858); assay: Selectivity test for Nav ion channel subtypes: NaV1.7 (CHO cells, patch clamp); assay type: cell-based; conditions: 1 uM
Description: as §1, §2, §3, §4, §5, §6, §7, §8

[1] = In vivo pharmacokinetic testing of compounds in rats; conditions: rat, male SD rats, single oral dose 100 mg/kg, plasma, VX-150 dosed as prodrug, active form analysed
Description: Test Case 4: In Vivo Pharmacokinetic Testing of Compounds in Rats
All SD rats in the test are male and are purchased from Shanghai Sippe-Bk Lab Animal Co., Ltd. Each compound is administered orally (100 mg/kg, 3 rats per group) at single dose to SD rats for pharmacokinetic study. The solutions are prepared on the same day of administration, e.g., the tested compound is suspended in 5% DMSO+95% saline, get vortexed for 2 min, and sonicated for 5 min to prepare a drug delivery system. The animals are fasted for 10-14 hours before oral administration, and resumed food 4 hours after administration. After oral administration by gavage in SD rats, pharmacokinetic samples are collected from jugular vein at the following time points: 0, 15 min, 30 min, 1 h, 2 h, 4 h, 6 h, 8 h and 24 h. Three whole blood samples are collected at each time point in a volume of about 0.2 mL and anticoagulated using sodium heparin. Blood samples are placed on ice immediately after collection and plasma is separated by centrifugation within 1 h (centrifugation conditions: 6800 rpm, 6 min, 2-8° C.). The collected plasma is stored in a −80° C. refrigerator prior to analysis.
In pharmacokinetic tests in rat, the control compound VX-150 is a prodrug (WO2015089361, compound 9), after administration, analysis is performed to test its active form (WO2014120808, compound 10). The aforementioned in vitro pharmacological tests are performed using the active ingredient (WO2014120808, compound 10).

[2] = read-out: Inhibition ratio of Nav1.8 (Activity of inhibition)
[3] = read-out: Inhibition ratio of compounds against Nav1.8 (Activity of inhibition)

hERG ion channels, sequence (Q12809 whole entry): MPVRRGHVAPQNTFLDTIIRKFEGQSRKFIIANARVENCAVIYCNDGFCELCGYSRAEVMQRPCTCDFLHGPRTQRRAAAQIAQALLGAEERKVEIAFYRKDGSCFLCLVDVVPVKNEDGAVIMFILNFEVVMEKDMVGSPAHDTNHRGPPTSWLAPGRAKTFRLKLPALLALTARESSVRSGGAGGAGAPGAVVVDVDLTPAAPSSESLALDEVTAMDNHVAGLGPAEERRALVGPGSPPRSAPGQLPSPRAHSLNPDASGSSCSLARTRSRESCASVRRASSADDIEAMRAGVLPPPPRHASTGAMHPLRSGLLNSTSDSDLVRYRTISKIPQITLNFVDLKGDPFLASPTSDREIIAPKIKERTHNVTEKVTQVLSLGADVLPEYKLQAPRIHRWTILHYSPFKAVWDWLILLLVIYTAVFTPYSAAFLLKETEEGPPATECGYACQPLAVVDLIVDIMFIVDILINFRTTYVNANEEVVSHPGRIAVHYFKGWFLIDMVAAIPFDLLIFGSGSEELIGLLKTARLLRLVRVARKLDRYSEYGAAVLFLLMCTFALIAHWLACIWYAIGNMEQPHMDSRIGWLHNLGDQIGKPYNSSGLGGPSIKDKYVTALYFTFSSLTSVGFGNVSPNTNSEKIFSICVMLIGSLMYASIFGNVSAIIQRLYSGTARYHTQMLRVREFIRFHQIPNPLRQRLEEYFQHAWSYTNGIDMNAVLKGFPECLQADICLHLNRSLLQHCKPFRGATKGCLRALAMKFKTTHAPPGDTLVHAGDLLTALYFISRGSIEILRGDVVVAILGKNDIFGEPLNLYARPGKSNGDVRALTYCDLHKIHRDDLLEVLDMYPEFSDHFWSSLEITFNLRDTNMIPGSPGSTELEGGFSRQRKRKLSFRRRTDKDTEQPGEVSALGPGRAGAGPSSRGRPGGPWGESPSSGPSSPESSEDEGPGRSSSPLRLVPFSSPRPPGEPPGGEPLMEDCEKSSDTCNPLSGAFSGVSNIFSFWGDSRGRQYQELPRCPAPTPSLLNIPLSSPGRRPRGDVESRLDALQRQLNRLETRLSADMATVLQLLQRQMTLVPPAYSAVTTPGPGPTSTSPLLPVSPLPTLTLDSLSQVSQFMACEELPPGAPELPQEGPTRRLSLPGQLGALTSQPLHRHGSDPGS

Cc1cc(F)ccc1Oc1ccc(C(F)(F)F)cc1C(=O)Nc1ccc(F)c(C(N)CC(N)=O)c1 (centres unmarked) [Example 1, N-(3-(1,3-diamino-3-oxopropyl)-4-fluorophenyl)-2-(4-fluoro-2-methylphenoxy)-5-(trifluoromethyl) benzamide]
IC50 (hERG ion channels; read-out: IC50 for hERG inhibited by compounds, HEK293 cells, hERG tail current): 3.2 µM

Cc1cc(F)ccc1Oc1ccc(C(F)(F)F)cc1C(=O)Nc1ccc(F)c(C(N)C(N)=O)c1 (centres unmarked) [Example 36]
inhibition at 0.1 µM (human NaV1.8 ion channel; [2]): > 80%
IC50 (hERG ion channels; human, pH 7.4): 10.5 µM

Cc1cc(F)ccc1Oc1ccc(C(F)(F)F)cc1C(=O)Nc1ccc(F)c(C(N)CCO)c1 (centres unmarked) [Example 38]
inhibition at 0.1 µM (human NaV1.8 ion channel; [2]): 50 to 80%
IC50 (hERG ion channels; human, pH 7.4): 3 µM

Cc1cc(F)ccc1Oc1cc(C2CC2)c(C(F)(F)F)cc1C(=O)Nc1ccc(F)c(OCC(O)CNc2ccc(F)cc2)c1 (centres unmarked) [Example 96]
inhibition at 0.1 µM (human NaV1.8 ion channel; [3]): 20 to 50%

Cc1cc(F)ccc1Oc1cc(C2CC2)c(C(F)(F)F)cc1C(=O)Nc1ccc(F)c(OCC(O)CNc2cnn(C)c2)c1 (centres unmarked) [Example 97]
inhibition at 0.1 µM (human NaV1.8 ion channel; [3]): 50 to 80%

Cc1cc(F)ccc1Oc1cc(C2CC2)c(C(F)(F)F)cc1C(=O)Nc1ccc(F)c(OCC(O)CNc2nccs2)c1 (centres unmarked) [Example 98]
inhibition at 0.1 µM (human NaV1.8 ion channel; [3]): > 80%

Cc1cc(F)ccc1Oc1cc(C2CC2)c(C(F)(F)F)cc1C(=O)Nc1ccc(F)c(OCC(O)CNc2ccn[nH]2)c1 (centres unmarked) [Example 99]
inhibition at 0.1 µM (human NaV1.8 ion channel; [3]): 50 to 80%

Cc1cc(F)ccc1Oc1cc(C2CC2)c(C(F)(F)F)cc1C(=O)Nc1ccc(F)c(OCC(O)CNc2ncc[nH]2)c1 (centres unmarked) [Example 100]
inhibition at 0.1 µM (human NaV1.8 ion channel; [3]): 50 to 80%

Cc1cc(F)ccc1Oc1cc(C(F)(F)F)c(Cl)cc1C(=O)Nc1cnnc(OCC(O)CO)c1 (centres unmarked) [Example 101]
inhibition at 0.1 µM (human NaV1.8 ion channel; [3]): 50 to 80%

Cc1cc(F)ccc1Oc1cc(C2CC2)c(C(F)(F)F)cc1C(=O)Nc1cnnc(OCC(O)CO)c1 (centres unmarked) [Example 102]
inhibition at 0.1 µM (human NaV1.8 ion channel; [3]): 50 to 80%

Cc1cc(F)ccc1Oc1cc(C(F)(F)F)c(Cl)cc1C(=O)Nc1ccnc(OCC(O)CO)c1 (centres unmarked) [Example 103]
inhibition at 0.1 µM (human NaV1.8 ion channel; [3]): > 80%

Cc1cc(F)ccc1Oc1cc(C2CC2)c(C(F)(F)F)cc1C(=O)Nc1ccnc(OC[C@H](O)CO)c1 [Example 104]
inhibition at 0.1 µM (human NaV1.8 ion channel; [3]): > 80%
IC50 (hERG ion channels; human, pH 7.4): 3.8 µM
Inhibition ratio on Nav1.1 (NaV1.1): 1.5%
Inhibition ratio on Nav1.3 (NaV1.3): 4.3%
Inhibition ratio on Nav1.4 (NaV1.4): <1%
Inhibition ratio on Nav1.5 (NaV1.5): <1%
Inhibition ratio on Nav1.6 (NaV1.6): 2.8%
Inhibition ratio on Nav1.7 (NaV1.7): 1.3%
half-life [1]: 5.1 h
AUC ([1]; read-out: AUC): 58000 ng·h/mL
Cmax ([1]; read-out: Cmax): 5140 ng/mL

Cc1cc(F)ccc1Oc1cc(C2CC2)c(C(F)(F)F)cc1C(=O)Nc1ccnc(OC[C@@H](O)CO)c1 [Example 105]
inhibition at 0.1 µM (human NaV1.8 ion channel; [3]): 50 to 80%

Cc1cc(F)ccc1Oc1cc(C(F)(F)F)c(Cl)cc1C(=O)Nc1ccc(F)c(OCC(O)CNC(C)C)c1 (centres unmarked) [Example 106]
inhibition at 0.1 µM (human NaV1.8 ion channel; [3]): > 80%
